Reference: patent publication US12295955B2, “TTP phosphorylation for the identification of personalized medicines” (KING FAISAL SPECIALIST HOSPITAL & RESEARCH CENTRE, priority 2019, dated 2025)

Columns and labels:
phosphorylated TTP/ZFP36 [1] = test: Western blotting of TTP/ZFP36 phosphorylation in cells treated with kinase inhibitor volasertib; type: cell-based
Method: The cells were lysed in a mixture of 0.5% NP40 buffer, protease inhibitor and phosphatase inhibitor. The calf intestinal alkaline phosphatase (CIP, Promega, Madison, WI, USA) was used to verify the phosphorylation status of TTP/ZFP36, 20 units were added to the cell lysate (per 250 ul). The cell lysates were loaded and subjected to electrophoresis on 4-12% NuPAGE Bis-Tris gel (Invitrogen, Foster City, CA, USA). Then, the proteins were transferred from the gel to nitrocellulose membranes (Hybond ECL; Amersham Biosciences, Piscataway, NJ) in the presence of NuGAGE 20× transfer buffer (Invitrogen, Foster City, CA, USA). After blocking, membranes were incubated with primary antibodies diluted in 5% bovine serum albumin (BSA) (Sigma-Aldrich, St Louis, MO) at 4° C. overnight. For TTP/ZFP36, a custom-made affinity purified TTP polyclonal antibody and against C-terminal end of TTP and was used previously. This antibody is specific to TTP/ZFP36, but not the ortholog: ZFP36L1 when using 0.5% NP40 buffer instead of Laemmli buffer. Other antibodies are: anti-PLK1 (dilution 1:1000, Cell signaling, Massachusetts, USA), anti-GAPDH (dilution 1:500, Abcam, MA, USA), anti-HA, dilution 1:5000, Roche, Upper Bavaria, Germany). Thereafter, the membranes were incubated with corresponding secondary antibodies (diluted in 5% BSA, 1:2000 dilution) (Santa Cruz Biotech, Santa Cruz, CA) for 1-3 hrs. Protein bands were detected using ECL Western blotting detection reagents (Amersham Biosciences, Amersham, UK) in Molecular Imager ChemiDoc machine (BioRad, Hercules, CA, USA).
An exemplary kinase inhibitor, namely volasertib, was tested for the effects on the level of phosphorylation of TTP. […] The maximum dosage tested was 300 nM, and the lowest tested dose was 10 nM and was still effective (FIG. 2A). […] There was no change in the mobility of ZFP36 as observed with CIP treatment, indicating a partial, rather than complete de-phosphorylation event (as with CIP).

uPA = test: Western blotting of uPA protein (TTP target) after volasertib; type: cell-based; settings: volasertib 330 nM time course, FIG. 2C
Method: The cells were lysed in a mixture of 0.5% NP40 buffer, protease inhibitor and phosphatase inhibitor. The calf intestinal alkaline phosphatase (CIP, Promega, Madison, WI, USA) was used to verify the phosphorylation status of TTP/ZFP36, 20 units were added to the cell lysate (per 250 ul). The cell lysates were loaded and subjected to electrophoresis on 4-12% NuPAGE Bis-Tris gel (Invitrogen, Foster City, CA, USA). Then, the proteins were transferred from the gel to nitrocellulose membranes (Hybond ECL; Amersham Biosciences, Piscataway, NJ) in the presence of NuGAGE 20× transfer buffer (Invitrogen, Foster City, CA, USA). After blocking, membranes were incubated with primary antibodies diluted in 5% bovine serum albumin (BSA) (Sigma-Aldrich, St Louis, MO) at 4° C. overnight. For TTP/ZFP36, a custom-made affinity purified TTP polyclonal antibody and against C-terminal end of TTP and was used previously. This antibody is specific to TTP/ZFP36, but not the ortholog: ZFP36L1 when using 0.5% NP40 buffer instead of Laemmli buffer. Other antibodies are: anti-PLK1 (dilution 1:1000, Cell signaling, Massachusetts, USA), anti-GAPDH (dilution 1:500, Abcam, MA, USA), anti-HA, dilution 1:5000, Roche, Upper Bavaria, Germany). […] Protein bands were detected using ECL Western blotting detection reagents (Amersham Biosciences, Amersham, UK) in Molecular Imager ChemiDoc machine (BioRad, Hercules, CA, USA). […]

MDA-MB-231 xenografts = test: MDA-MB-231 xenograft tumor growth in nude mice; type: in vivo
Method: (§1) FIGS. 4A-4B show kinase inhibition in mice and reduction in TTP phosphorylation. • 4A) PLK1 inhibition and tumor size in mice; MDA-MB-231 xenografts were injected into the mammary fat pad of female nude mice; when tumors become palpable, mice were treated with either volasertib (10 mg/kg) or vehicle twice weekly. The tumor size was calculated as described in Methods. Data are Mean±SEM from a nine-mouse experiment as indicated. Two-way ANOVA was performed for overall effect with Sidak's multiple comparison test (*p<0.05, **** p<0.0001). 4B) The effect of volasertib on TTP/ZFP36 phosphorylation; WB of tumor tissues from each mouse as probed with anti-TTP/ZFP36 or GAPDH as the loading control.
Nude mice were purchased from Jackson Laboratories (Bar Harbor, Maine, USA). The mice were housed at the animal facility at King Faisal Specialist Hospital and Research Center (KFSHRC) and maintained in accordance with protocols approved by the institution Animal Care and Use Committee. […] Tumor growth was measured by caliper, and the volume was calculated by the formula (π/6×L×M2), where L and M refer to the large and small diameters of each tumor, respectively. Mice weight and tumor size were recorded weekly. […]

phosphorylated TTP/ZFP36 [2] = test: Western blotting of phosphorylated TTP/ZFP36 in excised xenograft tumor tissues; design: species or system nude mice; settings: 10 mg/kg in vivo treatment, Western blot, FIG. 4B
Method: as §1
The cells were lysed in a mixture of 0.5% NP40 buffer, protease inhibitor and phosphatase inhibitor. […] Protein bands were detected using ECL Western blotting detection reagents (Amersham Biosciences, Amersham, UK) in Molecular Imager ChemiDoc machine (BioRad, Hercules, CA, USA).
Nude mice were purchased from Jackson Laboratories (Bar Harbor, Maine, USA). […] Tumor growth was measured by caliper, and the volume was calculated by the formula (π/6×L×M2), where L and M refer to the large and small diameters of each tumor, respectively. Mice weight and tumor size were recorded weekly. […]

phosphorylated TTP = test: Phosphorylated TTP level in ERBB2 overexpressing SKBR3 cells treated with ERBB2 inhibitor; type: cell-based; settings: SKBR3 breast cancer cell line, FIG. 6B
[3] = dose response, 10 nM to 300 nM, Western blot, FIG. 2A
[4] = time course, volasertib 330 nM, FIG. 2B

SMILES	lowest tested dose still effective on TTP / phosphorylated TTP abundance (phosphorylated TTP/ZFP36 [1]; FIG. 2A) [nM]	change in the mobility of ZFP36 (partial rather than complete de-phosphorylation) (phosphorylated TTP/ZFP36 [1]; compared with CIP treatment)	abundance of phosphorylated TTP (phosphorylated TTP/ZFP36 [1]; [3])	abundance of total TTP (phosphorylated TTP/ZFP36 [1]; [3])	time after treatment at which effect on phosphorylated TTP is first observed (phosphorylated TTP/ZFP36 [1]; [4]) [h]	time after treatment of maximal effect on phosphorylated TTP (phosphorylated TTP/ZFP36 [1]; [4]) [h]	abundance of the uPA protein (uPA)	tumor growth versus control group (MDA-MB-231 xenografts; 10 mg/kg intraperitoneal twice a week, female nude mice, FIG. 4A upper panel)	difference in tumor volume versus vehicle (MDA-MB-231 xenografts; 10 mg/kg twice a week, after 4 weeks of treatment, FIG. 4A lower panel)	phosphorylated TTP/ZFP36 levels in excised tumor tissues versus control (phosphorylated TTP/ZFP36 [2])	levels of phosphorylated TTP (phosphorylated TTP)
CC[C@@H]1C(=O)N(C)c2cnc(Nc3ccc(C(=O)N[C@H]4CC[C@H](N5CCN(CC6CC6)CC5)CC4)cc3OC)nc2N1C(C)C [volasertib]	10	no change	reduced in a dose-dependent manner	reduced in a dose-dependent manner	2	8	reduced	slower growth rate and began to regress by the end of the experiment	statistically significant difference	markedly reduced	–
CS(=O)(=O)CCNCc1ccc(-c2ccc3ncnc(Nc4ccc(OCc5cccc(F)c5)c(Cl)c4)c3c2)o1 [lapatinib]	–	–	–	–	–	–	–	–	–	–	reduce the levels of phosphorylated TTP
